Key:
[1] = molecular target: T1, Pim-2 stably transfected into the U2OS human osteogenic sarcoma line (Homo sapiens, UniProt Q9P1W9); assay: Pim cell assay, phospho-BAD normalized against total BAD, U2OS stably transfected with Pim-2; assay type: cell-based; settings: U2OS cells stably transfected with Pim-2, phospho-BAD; high dose […]; read-out: Pim2_Cell_IC50; further: high dose 31.6 µM
T1 construct: expressed in transfected cells; host or cells: U2OS human osteogenic sarcoma line
Method in brief: (§1)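 U2OS cells stably expressing Pim-1 or Pim-2 were plated overnight at 37 °C, then dosed over a 10-point curve (final 0.3% DMSO; DMSO alone as high control). Lysates assayed for phospho- and total BAD by Meso Scale immunoassay; % phosphoprotein = (2×phospho)/(phospho+total)×100.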

[2] = molecular target: T2, Pim-1 stably transfected into the U2OS human osteogenic sarcoma line (Homo sapiens, UniProt P11309); assay: Pim cell assay, phospho-BAD normalized against total BAD, U2OS stably transfected with Pim-1; assay type: cell-based; settings: U2OS cells stably transfected with Pim-1, phospho-BAD; high dose […]; read-out: Pim1_Cell_IC50
T2 construct: expressed in transfected cells; host or cells: U2OS human osteogenic sarcoma line
Method in brief: as §1

[3] = molecular target: T3, full length recombinant Pim-2 protein (Homo sapiens, UniProt Q9P1W9); assay: Pim-2 enzyme assay (HTRF, phosphorylation of biotinylated-BAD (S112) peptide); assay type: biochemical; settings: enzyme assay, Pim-2; read-out: Pim2_IC50
T3 construct: by full length recombinant Pim-1, Pim-2, or Pim-3 protein; hexahistidine tag followed by a thrombin cleavage site (N); made in house; host or cells: Sf9 (baculovirus) or E. coli (pET28)
Method in brief: (§2)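 Kinase: full-length human Pim-1/Pim-2, His6-thrombin tagged. Substrate biotin-BAD (S112) peptide. Buffer 60 mM Hepes pH 7.0, 0.05% BSA, 2 mM DTT. Stop 3 mM EDTA. Detection HTRF (Eu anti-pBAD/SA-APC). IC50 by 4-parameter logistic on POC.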

[4] = molecular target: T4, full length recombinant Pim-1 protein (Homo sapiens, UniProt P11309); assay: Pim-1 enzyme assay (HTRF, phosphorylation of biotinylated-BAD (S112) peptide); assay type: biochemical; settings: enzyme assay, Pim-1; read-out: Pim_1_IC50
T4 construct: by full length recombinant Pim-1, Pim-2, or Pim-3 protein; hexahistidine tag followed by a thrombin cleavage site (N); made in house; host or cells: Sf9 (baculovirus) or E. coli (pET28)
Method in brief: as §2

[5] = molecular target: T5, full length recombinant Pim-3 protein (Homo sapiens, UniProt Q86V86); assay: Pim-3 enzyme assay (HTRF, phosphorylation of biotinylated-BAD (S112) peptide); assay type: biochemical; settings: read-out: Pim3 IC50
T5 construct: by full length recombinant Pim-1, Pim-2, or Pim-3 protein; purchased Millipore (UK)
Method in brief: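 Full-length recombinant Pim-3 phosphorylates biotinylated BAD (S112) peptide in 60 mM Hepes pH 7.0, 0.05% BSA, 2 mM DTT; reaction stopped with 3 mM EDTA. Phospho-BAD detected by HTRF (Eu anti-phospho-BAD S112 antibody, streptavidin-APC). IC50 from percent-of-control values fitted to a 4-parameter logistic model.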

T2 sequence (P11309 whole entry): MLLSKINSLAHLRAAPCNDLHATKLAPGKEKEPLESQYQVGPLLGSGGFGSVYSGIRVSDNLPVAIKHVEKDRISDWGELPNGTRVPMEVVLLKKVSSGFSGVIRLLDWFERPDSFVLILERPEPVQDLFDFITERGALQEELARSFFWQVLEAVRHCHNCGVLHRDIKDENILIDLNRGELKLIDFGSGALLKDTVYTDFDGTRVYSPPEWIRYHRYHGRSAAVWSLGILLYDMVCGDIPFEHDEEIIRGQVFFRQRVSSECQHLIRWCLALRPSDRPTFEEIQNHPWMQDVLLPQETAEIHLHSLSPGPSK
T4 sequence (P11309 whole entry): as above
T3 sequence (Q9P1W9 whole entry): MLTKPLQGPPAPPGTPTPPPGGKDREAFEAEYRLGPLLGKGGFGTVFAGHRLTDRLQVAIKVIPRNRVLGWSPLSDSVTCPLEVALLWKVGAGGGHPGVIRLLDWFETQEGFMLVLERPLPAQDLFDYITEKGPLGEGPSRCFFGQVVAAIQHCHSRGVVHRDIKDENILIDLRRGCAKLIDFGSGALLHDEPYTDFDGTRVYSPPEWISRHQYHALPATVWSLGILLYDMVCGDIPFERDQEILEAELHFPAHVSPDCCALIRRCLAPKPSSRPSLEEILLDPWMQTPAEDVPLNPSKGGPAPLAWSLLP
T1 sequence (Q9P1W9 whole entry): as above

IC50 [1] | IC50 [2] | IC50 [3] | IC50 [4] | IC50 [5] | SMILES
8.5 µM | 172 nM | 77 nM | 6 nM | 12 nM | COc1cncc(-c2ccc3[nH]nc(-c4cncc(O[C@@H]5CCCNC5)n4)c3c2)c1 [Example 114, 5-(5-methoxy-3-pyridinyl)-3-(6-((3R)-3-piperidinyloxy)-2-pyrazinyl)-1H-indazole]
> 31.6 µM | 958 nM | 155 nM | 33 nM | 20 nM | Fc1cncc(-c2ccc3[nH]nc(-c4cncc(O[C@@H]5CCCNC5)n4)c3c2)c1 [Example 115, 5-(5-fluoro-3-pyridinyl)-3-(6-((3R)-3-piperidinyloxy)-2-pyrazinyl)-1H-indazole]
3.01 µM | 157 nM | 23 nM | 3 nM | 5 nM | c1cc2cc(-c3ccc4[nH]nc(-c5cncc(O[C@@H]6CCCNC6)n5)c4c3)cnc2[nH]1 [Example 121, 3-(6-((3R)-3-piperidinyloxy)-2-pyrazinyl)-5-(1H-pyrrolo[2,3-b]pyridin-5-yl)-1H-indazole]
> 31.6 µM | 563 nM | 161 nM | 13 nM | 6 nM | CC(C)c1ccnc(-c2ccc3[nH]nc(-c4cncc(O[C@@H]5CCCNC5)n4)c3c2)n1 [Example 126, 5-(4-(1-methylethyl)-2-pyrimidinyl)-3-(6-((3R)-3-piperidinyloxy)-2-pyrazinyl)-1H-indazole]
> 31.6 µM | 1020 nM | 67 nM | 13 nM | 6 nM | c1cc(C2CC2)nc(-c2ccc3[nH]nc(-c4cncc(O[C@@H]5CCCNC5)n4)c3c2)n1 [Example 127, 5-(4-cyclopropyl-2-pyrimidinyl)-3-(6-((3R)-3-piperidinyloxy)-2-pyrazinyl)-1H-indazole]
9.24 µM | 208 nM | 25 nM | 7 nM | 8 nM | CN1CCOc2cc(-c3ccc4[nH]nc(-c5cncc(O[C@@H]6CCCNC6)n5)c4c3)cnc21 [Example 130, 4-methyl-7-(3-(6-((3R)-3-piperidinyloxy)-2-pyrazinyl)-1H-indazol-5-yl)-3,4-dihydro-2H-pyrido[3,2-b][1,4]oxazine]
8.91 µM | 151 nM | 15 nM | 2 nM | 5 nM | COc1cccc(-c2ccc3[nH]nc(-c4cncc(O[C@@H]5CCCNC5)n4)c3c2)c1F [Example 131, 5-(2-fluoro-3-methoxyphenyl)-3-(6-((3R)-3-piperidinyloxy)-2-pyrazinyl)-1H-indazole]
3.05 µM | 245 nM | 14 nM | 8 nM | 14 nM | O=C(NC1CC1)c1cccc(-c2ccc3[nH]nc(-c4cncc(O[C@@H]5CCCNC5)n4)c3c2)c1 [Example 132, N-cyclopropyl-3-(3-(6-((3R)-3-piperidinyloxy)-2-pyrazinyl)-1H-indazol-5-yl)benzamide]
7.84 µM | 435 nM | 17 nM | 5 nM | 6 nM | Fc1ccccc1-c1ccc2[nH]nc(-c3cncc(O[C@@H]4CCCNC4)n3)c2c1 [Example 133, 5-(2-fluorophenyl)-3-(6-((3R)-3-piperidinyloxy)-2-pyrazinyl)-1H-indazole]
> 31.6 µM | 921 nM | 185 nM | 5 nM | 14 nM | c1cn2cc(-c3ccc4[nH]nc(-c5cncc(O[C@@H]6CCCNC6)n5)c4c3)ncc2n1 [Example 138, 6-(3-(6-((3R)-3-piperidinyloxy)-2-pyrazinyl)-1H-indazol-5-yl)imidazo[1,2-a]pyrazine]
3.78 µM | 454 nM | 13 nM | 13 nM | 12 nM | O=C(NC1CC1)c1ccc(F)c(-c2ccc3[nH]nc(-c4cncc(O[C@@H]5CCCNC5)n4)c3c2)c1 [Example 139, N-cyclopropyl-4-fluoro-3-(3-(6-((3R)-3-piperidinyloxy)-2-pyrazinyl)-1H-indazol-5-yl)benzamide]
> 31.6 µM | 625 nM | 87 nM | 19 nM | 6 nM | FC(F)(F)c1cccc(-c2ccc3[nH]nc(-c4cncc(O[C@@H]5CCCNC5)n4)c3c2)n1 [Example 142, 3-(6-((3R)-3-piperidinyloxy)-2-pyrazinyl)-5-(6-(trifluoromethyl)-2-pyridinyl)-1H-indazole]
> 31.6 µM | 873 nM | 34 nM | 5 nM | 25 nM | CC(C)Oc1cc(-c2ccc3[nH]nc(-c4cncc(O[C@@H]5CCCNC5)n4)c3c2)ccn1 [Example 143, 5-(2-(1-methylethoxy)-4-pyridinyl)-3-(6-((3R)-3-piperidinyloxy)-2-pyrazinyl)-1H-indazole]
> 15.8 µM | 36 nM | 121 nM | 1 nM | 1 nM | c1cc2[nH]nc(-c3cncc(O[C@@H]4CCCNC4)n3)c2cc1-c1cncc(NC2CC2)n1 [Example 158, N-cyclopropyl-6-(3-(6-((3R)-3-piperidinyloxy)-2-pyrazinyl)-1H-indazol-5-yl)-2-pyrazinamine]

The next lines start with the compound.

SMILES | IC50 [1] | IC50 [2] | IC50 [3] | IC50 [4] | IC50 [5]
CC(C)NC(=O)c1ccc(F)c(-c2ccc3[nH]nc(-c4cncc(O[C@@H]5CCCNC5)n4)c3c2)c1 [Example 122, 4-fluoro-N-(1-methylethyl)-3-(3-(6-((3R)-3-piperidinyloxy)-2-pyrazinyl)-1H-indazol-5-yl)benzamide] | 1.85 µM | 287 nM | 14 nM | 16 nM | 20 nM
O[C@H]1CCCN(c2cncc(-c3n[nH]c4ccc(-c5c(F)cccc5F)cc34)n2)C1 [Example 163, (3S)-1-(6-(5-(2,6-difluorophenyl)-1H-indazol-3-yl)-2-pyrazinyl)-3-piperidinol] | > 31.6 µM | 1630 nM | 969 nM | 58 nM | 49 nM
CN(c1cncc(-c2n[nH]c3ccc(-c4c(F)cccc4F)cc23)n1)C1CCCNC1 (stereo not drawn) [Example 178, 6-(5-(2,6-difluorophenyl)-1H-indazol-3-yl)-N-methyl-N-3-piperidinyl-2-pyrazinamine] | 14.3 µM | 582 nM | 61 nM | 6 nM | 6 nM
CCNc1cncc(-c2n[nH]c3ccc(-c4c(F)cccc4F)cc23)n1 [Example 180, 6-(5-(2,6-difluorophenyl)-1H-indazol-3-yl)-N-ethyl-2-pyrazinamine] | > 31.6 µM | 2130 nM | 643 nM | 76 nM | 81 nM
CC(C)Nc1cncc(-c2n[nH]c3ccc(-c4c(F)cccc4F)cc23)n1 [Example 182, 6-(5-(2,6-difluorophenyl)-1H-indazol-3-yl)-N-(1-methylethyl)-2-pyrazinamine] | > 31.6 µM | 2460 nM | 556 nM | 40 nM | 49 nM
CC(C)(C)Nc1cncc(-c2n[nH]c3ccc(-c4c(F)cccc4F)cc23)n1 [Example 183, N-tert-butyl-6-(5-(2,6-difluorophenyl)-1H-indazol-3-yl)-2-pyrazinamine] | > 31.6 µM | 4260 nM | 679 nM | 44 nM | 44 nM
Fc1cccc(F)c1-c1ccc2[nH]nc(-c3cncc(Nc4ccccc4)n3)c2c1 [Example 184, 6-(5-(2,6-difluorophenyl)-1H-indazol-3-yl)-N-phenyl-2-pyrazinamine] | > 31.6 µM | > 31600 nM | 1040 nM | 139 nM | 233 nM
Fc1cccc(F)c1-c1ccc2[nH]nc(-c3cncc(OC4CCNC4)n3)c2c1 (stereo not drawn) [Example 187, 5-(2,6-difluorophenyl)-3-(6-(3-pyrrolidinyloxy)-2-pyrazinyl)-1H-indazole] | 24.2 µM | 1830 nM | 131 nM | 50 nM | 22 nM
Fc1cccc(F)c1-c1ccc2[nH]nc(-c3ccnc(O[C@@H]4CCCNC4)n3)c2c1 [Example 190, 5-(2,6-difluorophenyl)-3-(2-((3R)-3-piperidinyloxy)-4-pyrimidinyl)-1H-indazole] | 18.8 µM | 1220 nM | 223 nM | 24 nM | 36 nM
NC1CCN(c2nccc(-c3n[nH]c4ccc(-c5c(F)cccc5F)cc34)n2)CC1 [Example 194, 1-(4-(5-(2,6-difluorophenyl)-1H-indazol-3-yl)-2-pyrimidinyl)-4-piperidinamine] | > 31.6 µM | 561 nM | 52 nM | 2 nM | 3 nM

— US9090593B2, “Bicyclic compounds as Pim inhibitors” (AMGEN INC., priority 2010, dated 2015)
